{
  "source": "patent US20140348850A1",
  "about": "“METHOD FOR REDUCING BLOOD PRESSURE USING INHIBITORS OF PLASMA KALLIKREIN” (JOSLIN DIABETES CENTER, priority 2008, published 2014)",
  "key": {"[1]": {"test_system": "Ang-II-induced hypertension", "assay": "BP-lowering effect in Ang-II-induced rat hypertension model (telemetry)", "type": "in vivo", "details": "rats infused with Ang-II 300 ng/kg/min; ASP-440 16 ƒg/kg/hr by subcutaneous osmotic pump; vs Ang-II alone", "source_text": "FIG. 1 is a graph showing the time course of systolic blood pressure (SBP) measured using telemetry in rats infused with Ang-II in the absence or presence of ASP-440. * and † indicate p<0.05 for Day 0 vs Ang-II alone (n=4) and Ang-II+ASP-440 (n=7), respectively. ‡ indicates p<0.05 for Ang-II alone vs Ang-Il^+ ASP-440. NS indicates statistically non-significant change from Day 0.\nRats were infused continuously with Ang-II, and concurrently with either ASP-440 or vehicle control. Treatments were achieved by the use of subcutaneous implantation of two sets of Alzet mini-osmotic pumps (DURECT corporation, Cupertino Calif.), one containing Ang-II, the other containing either ASP-440 or vehicle control. Angll (EMD Chemicals Inc, La Jolla, Calif.) was delivered at 300 ng/kg/min. ASP-440 was delivered at 16 ƒg/kg/hr, and control pumps were filled with vehicle (10% polyethylene glycol, 90% phosphate-buffered saline).\nBlood pressure measurements by telemetry were performed using PA-C40 transmitters (Data Sciences International, St. Paul, Minn.). […] Rats were housed individually on a receiver pad and blood pressure was monitored continuously. […] Baseline readings (Day 0) were obtained 48 hours after catheter implantation, following implantation of Alzet mini-pumps."}, "[2]": {"test_system": "retinal vasculature of diabetic rats", "assay": "Retinal vessel diameters, mean circulation time and retinal blood flow in STZ-diabetic rats (video fluorescein angiography)", "type": "in vivo, Sprague Dawley rats", "experimental": "FIGS. 2A and 2B are graphs showing normalized retinal blood flow (FIG. 2A) and increased blood vessel diameter (FIG. 2B) following ASP-440 administration in diabetic rats.\nWe examined the effect of ASP-440 on retinal vessel diameters, mean circulation times (MCT), and retinal blood flow (RBF) in rats with diabetes. Diabetes was induced in Sprague Dawley rats with an intraperitoneal injection of 55 mg/kg of streptozotocin (STZ) (Sigma, St. Louis, Mo., USA) in 10 mmol/l citrate buffer, pH 4.5 after a 12 h fast. Diabetes was confirmed with blood glucose measurements (>14 mmol/l) 24 h after STZ injection. The rats were housed under standard conditions with free access to water and standard food. Two weeks after diabetes onset rats were implanted with a subcutaneous osmotic model 2002 Alzet pump containing either 12 mg/ml ASP-440 or saline vehicle. Rats were infused for 2 weeks at a rate of 0.5 μg/hr. Retinal vessel diameters and MCT was measured after 4 weeks of total diabetes duration and RBF was calculated as described by Horio et al. (Diabetologia 47:113-23, 2004).\nTo make the measurements described above, the following procedure was used. […] The recorded fluorescein angiograms were digitized on a frame-by-frame basis and analyzed densitometrically to determine retinal vessel diameters and retinal mean circulation times (MCTs), as described by Horio et al. (supra). […] Vessel diameters in units of pixels were determined during peak fluorescein arterial and venous filling times at the defined vessel sample sites using a boundary-crossing algorithm. The average diameter for each vessel was measured for each sample site. […] At the fixed vessel sites, the average vessel fluorescence within a sample area defined by the vessel width was measured on a frame-by-frame basis to generate temporal fluorescence intensity or dye dilution curves. The resultant artery and vein fluorescence data were fit to a log normal distribution function from which average arterial and venous circulation times were calculated. […]"}, "[3]": {"details": "2 weeks subcutaneous pump infusion (12 mg/ml ASP-440), vs diabetic rats receiving vehicle"}},
  "data": [
    {"smiles": "N=C(N)c1ccc(CNC(=O)c2cnn(Cc3ccccc3)c2)cc1", "note": "[ASP-440, 1-Benzyl-1H-pyrazole-4-carboxylic acid 4-carbamimidoyl-benzylamide]", "values": [
      {"measurement": "blood pressure (systolic, telemetry)", "setting": "[1]", "value": "capable of reducing blood pressure"},
      {"measurement": "retinal blood flow (RBF)", "setting": "[2]; [3]", "value": "increased RBF"},
      {"measurement": "retinal mean circulation time (MCT)", "setting": "[2]; [3]", "value": "shortened MCT"},
      {"measurement": "retinal artery and vein diameters", "setting": "[2]; 2 weeks subcutaneous pump infusion, vs nondiabetic rats and saline-treated diabetic rats", "value": "increased retinal artery and vein diameters"}
    ]}
  ]
}
